The series is described as follows: gradient 5% acetonitrile 3 min, to 50% in 2 min, to 85% in 15 min, held 3 min, 100 µL/min. The conditions noted are these: column: Zorbax Extend-C18 2.1 x 50 mm; eluents: water / acetonitrile, 0.1% formic acid. Put shortly: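 A Zorbax Extend-C18 column (2.1 × 50 mm, 1.8 μm) run at 100 μL/min with water and acetonitrile, both containing 0.1% formic acid, separated mixtures of ~100 pure standards. The HPLC was coupled to a quadrupole time-of-flight mass spectrometer operated in positive and negative ionization mode, with dead and dwell volumes of 40 μL and 900 μL. Each retention time was taken from a computationally picked adduct peak that was then manually inspected.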
For `CC(NC(=O)c1cccc2c1CCN2C(=O)Nc1ccccc1)c1cccnc1` (centres undefined), the RP-LC retention time was 643 s. Take `Cc1ccc(Cl)cc1NC(=O)Cn1cnc2nc3c(cc2c1=O)CCCC3`: the RP-LC retention time came to 783 s. Consider `NC(=O)CSc1nccn1Cc1cccs1`, for which the RP-LC retention time turned out to be 516 s. On to `Cc1nc(C)c(C(=O)Nc2nc(-c3ccc(-c4ccccc4)cc3)cs2)s1`, for which the RP-LC retention time amounted to 1210 s. In the case of `Cc1ccc(CNC(=O)CN2CCN(C(=O)Nc3ccc(F)cc3)CC2=O)o1`, the RP-LC retention time was found to be 695 s. `O=C1CCN(C(=O)C2CCN(C(=O)C3CCCC3)CC2)CCCCCCN1` returned an RP-LC retention time of 652 s. Take `CCOc1ccc(Cn2c(=O)c3sccc3n(Cc3nc(-c4cccc(C)c4)no3)c2=O)cc1`: the RP-LC retention time amounted to 1180 s. The molecule `CC1CCCCN1S(=O)(=O)c1ccc2c(c1)CCC(=O)N2CC(=O)NCc1ccc(F)cc1` (centres undefined) displayed an RP-LC retention time of 855 s. Regarding `O=C(Nc1ccc(Cl)cc1F)c1cnc(-c2ccc(F)cc2)nc1-c1ccncc1`, the RP-LC retention time is 992 s. `CC(C(=O)NCC1CCCO1)N1C(=O)C2CCCCN2C(=O)c2ccccc21` (centres undefined): the RP-LC retention time turned out to be 664 s.

For `COc1ccccc1N1CCN(C(=O)C2=CCN(Cc3ccccc3)CC2)CC1`, the RP-LC retention time came out at 629 s. Turning to `COc1ccc(OCc2ccc(C(=O)Nc3ccc4c(c3)OCO4)o2)cc1`, the RP-LC retention time was 879 s. `CCCNC(=O)N1CCCC1c1nc(-c2cccc(C)c2)no1` (centres undefined) gave an RP-LC retention time of 826 s. `Cc1ccc(C)c(S(=O)(=O)N(C)CC2CCOCC2)c1` had an RP-LC retention time of 913 s. Regarding `CCc1noc(-c2ccnc(-n3ncc(C(=O)NC4CC4)c3C)c2)n1`, the RP-LC retention time is 815 s. To `CCOC(=O)N1CCN(C(=O)CSc2ncnc3c2cnn3-c2ccc(F)cc2)CC1` belongs 849 s. As to `CCN1C(=O)C(C)(C(=O)NCc2ccc(Br)cc2)Oc2cccnc21` (centres undefined), the RP-LC retention time came to 916 s. `C=CCNC(=O)C1CCN(Cc2noc(-c3ccc(F)cc3)n2)CC1` returned an RP-LC retention time of 613 s.

For `COc1ccc(N2CCN(C(=O)C3CCCN(c4cc(=O)n(C)c(=O)n4C)C3)CC2)cc1` (centres undefined), the RP-LC retention time was 696 s.

With `Cc1nc(-c2cc(S(=O)(=O)NCc3ccc(Br)cc3)c(C)s2)cs1`, the RP-LC retention time came out at 1030 s. The molecule `CCCCNC(=O)C1CC(=O)N(CCc2c[nH]c3ccc(Cl)cc23)C1` (centres undefined) registered an RP-LC retention time of 761 s. `O=C(N[C@H](Cc1ccccc1)C(=O)NCc1cscn1)c1ccccc1F` showed an RP-LC retention time of 734 s. The result for `CC(Oc1ccccc1F)C(=O)NCCOc1ccc(-c2ccccn2)nn1` (centres undefined) reads 612 s. `CC(CCNC(=O)c1cc2c(-c3cccs3)nn(-c3ccccc3)c2n1C)N1CCCC1` (centres undefined) displayed an RP-LC retention time of 726 s. Regarding `CCCCCn1c(=O)c2ccccc2n(Cc2nc(-c3ccc(OC(F)(F)F)cc3)no2)c1=O`, the RP-LC retention time came to 739 s.

Molecule `O=c1c2nc(-c3ccc(F)cc3)cn2ccn1-c1ccc2c(c1)CCC2` had an RP-LC retention time of 945 s. `CN(C)CCNC(=O)c1ccc(CS(=O)c2ccc(F)cc2)o1` (centres undefined) returned an RP-LC retention time of 569 s. Consider `CCC(=O)Nc1ccc(OCc2cc(C(=O)NC3CCCCC3)no2)cc1`, for which the RP-LC retention time was 840 s. For the molecule `Cc1nc2cc(N3CCC(C(=O)Nc4ccc(Cl)cc4)CC3)cnc2nc1C`, the RP-LC retention time came out at 790 s. Molecule `CC1CCN(S(=O)(=O)c2ccc3c(c2)CCCC(=O)N3CC(=O)N(C)C2CCCCC2)CC1` had an RP-LC retention time of 1040 s. Molecule `Cc1ccc(N2CC(c3noc(-c4nccc5ccccc45)n3)CC2=O)cc1` (centres undefined) showed an RP-LC retention time of 961 s. Take `CCCn1cc(C(=O)NCCN2CCOCC2)c2cccnc21`: the RP-LC retention time was determined as 586 s. The result for `CCOC(=O)c1nnn(-c2ccc(OCC)cc2)c1C(=O)OCC` reads 1040 s; that for `CCc1ccc(C2=C(C)C(N3CCCN(C(=O)c4ccsc4)CC3)=NS2(=O)=O)cc1`, 859 s; that for `CC(C)(C)c1ccc2c(c1)N(Cc1nc(-c3cccc(F)c3)no1)C(=O)CO2`, 1240 s.

Molecule `O=C(NC1CCN(c2cc(-c3cccs3)[nH]n2)C1)c1cccnc1` (centres undefined) showed an RP-LC retention time of 618 s. On to `COCCCNc1ncc(C(=O)O)c(-c2cccc(OC)c2)n1`, for which the RP-LC retention time worked out at 668 s. `COc1ccc(-c2noc(Cn3nc(-c4ccc(C)cc4)ccc3=O)n2)c(OC)c1` showed an RP-LC retention time of 949 s. Molecule `CCc1cc(=O)n(CC(=O)NCc2ccc(OC)cc2)c(N)n1` came in with an RP-LC retention time of 631 s.

Molecule `Cc1ccsc1CCNC(=O)Cn1nc(C(=O)N2CCCC2)c2ccccc21` came in with an RP-LC retention time of 824 s. The molecule `Cc1cccc(OCc2nc(-c3cccc(-c4ccnn4C)c3)no2)c1` showed an RP-LC retention time of 824 s. As to `CCc1cc(=O)n(CC(=O)N2CCc3ccccc32)c(-c2ccccc2)n1`, the RP-LC retention time is 1170 s. Regarding `CCc1nc2cc(-c3noc(-c4cccnc4)n3)ccc2o1`, the RP-LC retention time was determined as 912 s. As to `Cc1cn(-c2cc(NC(=O)c3ccc(C)c(Nc4nccc(-c5cccnc5)n4)c3)cc(C(F)(F)F)c2)cn1`, the RP-LC retention time stood at 776 s. To `Cc1ccc(Nc2nc(N3CCN(CCO)CC3)nc3c2C(=O)CCC3)cc1` belongs 656 s; to `Cc1csc(NC(=O)C2CCN(S(=O)(=O)c3cc(C(=O)N4CCCC4)n(C)c3)CC2)n1`, 697 s; to `CN(C)S(=O)(=O)c1ccc(Oc2ccc(S(=O)(=O)N(C)C)cc2)cc1`, 824 s. The result for `Cc1ccccc1NC(=O)N1CCCC(C)(C(=O)NCc2ccc(F)cc2)C1` (centres undefined) reads 899 s. To `CNC(=O)c1cc(Oc2ccc(NC(=O)Nc3cc(C(C)(C)C)nn3-c3ccc4ncccc4c3)c(F)c2)ccn1` belongs 855 s. The molecule `CCc1ccc(-n2ncc3c(=O)n(Cc4nc(-c5ccc(OC)c(OC)c5)no4)cnc32)cc1` yielded an RP-LC retention time of 1060 s.

Regarding `CCN(CC)C(=O)c1ccc2c(c1)N(CC(=O)NC1CCCCC1)C(=O)CO2`, the RP-LC retention time came to 724 s. The molecule `CC(C)CNC(=O)C1CCN(c2cnn(Cc3ccccc3)c(=O)c2)CC1` displayed an RP-LC retention time of 745 s. `CCC(C)C(=O)N1CCN(c2ncccc2-c2nnc(C3CC3)o2)CC1` (centres undefined) yielded an RP-LC retention time of 733 s.

`O=C(NCc1ccc(F)cc1Cl)c1cn2ccccc2n1` came in with an RP-LC retention time of 708 s. The result for `Cc1ccc(N2C=C(C(=O)N3CCCC3)S(=O)(=O)c3ccccc32)cc1F` reads 813 s. `COc1ccc(N2CCN(c3cc(SCC(=O)Nc4cc(C)cc(C)c4)ncn3)CC2)cc1` registered an RP-LC retention time of 1060 s.

For the molecule `O=C(NCCCN1CCCC1=O)c1ccc(-n2nnc3cccnc32)cc1`, the RP-LC retention time was determined as 637 s.

As to `Cc1cc(=O)n(CC(=O)Nc2cc(F)ccc2C)c(N2CCCCC2)n1`, the RP-LC retention time worked out at 699 s. Molecule `Cc1nn(C)c(C)c1CCN(C)C(=O)C1Cn2cccc2C(=O)N1CC(C)C` (centres undefined) showed an RP-LC retention time of 642 s. With `COc1ccc(-c2nc3ncccn3c2NC2CCCCCC2)cc1OC`, the RP-LC retention time turned out to be 756 s. In the case of `CCc1nc(-c2csc(S(=O)(=O)N3CCC(C(=O)NCc4ccc(C)cc4)CC3)c2)no1`, the RP-LC retention time is 662 s. `COCCNC(=O)c1ccc2c(c1)nc(C)n2-c1ccc(Br)cc1` gave an RP-LC retention time of 666 s. To `O=C(NCC1CC1)C1CCCN(c2cnc3nccnc3c2)C1` (centres undefined) belongs 643 s. `CCCCN(C)C(=O)C1CCN(c2cn[nH]c(=O)c2)CC1`: the RP-LC retention time stood at 640 s. To `COCCCNC(=O)C1(c2ccc(NC(=O)c3ccc(Br)cc3)cc2)CCC1` belongs 820 s.

With `Cc1ccc(NC(=O)C2CCCN(S(=O)(=O)c3c[nH]c(C(=O)N4CCCC4)c3)C2)cc1` (centres undefined), the RP-LC retention time is 850 s. Molecule `O=c1n(Cc2cccc(Cl)c2)nc2c(S(=O)(=O)N3CCOCC3)cccn12` had an RP-LC retention time of 1320 s. In turn, `O=C(Cc1ccccc1)N1CCN(c2cc(-c3ccccc3)[nH]n2)CC1` returned an RP-LC retention time of 774 s. Molecule `CC(=O)Nc1ccc(SCc2nnc(-c3ccc4c(c3)OCO4)o2)cc1` had an RP-LC retention time of 760 s. The molecule `Cc1ccc(S(=O)(=O)N2CCc3nc(-c4ccccc4)ncc3C2)cc1Cl` showed an RP-LC retention time of 1240 s.

`CCOC(=O)c1c(C)[nH]c(C(=O)N2CCC(CC(=O)NC3CCCCCC3)CC2)c1C` returned an RP-LC retention time of 835 s. Turning to `CCn1c(=O)n(CC)c2cc(S(=O)(=O)c3ccc(OC)cc3)c(NC(=O)C(C)C)cc21`, the RP-LC retention time stood at 836 s. With `Cc1ccc(C)c(Nc2c(-c3ccc(N4CCOCC4)cc3)nc3ncccn23)c1`, the RP-LC retention time turned out to be 746 s. The molecule `COc1ccc(C2(C(=O)Nc3ccc4c(c3)Sc3ncccc3C(=O)N4C)CC2)cc1` showed an RP-LC retention time of 902 s. The molecule `O=C(COc1ccccc1F)NCCn1nc(-c2ccco2)ccc1=O` gave an RP-LC retention time of 675 s. `Cc1ccc(C(O)CN2CCN(c3ccccc3)CC2)c(C)c1` (centres undefined) showed an RP-LC retention time of 703 s.

Take `CNC(=O)C1CN(C(=O)c2ccccc2Cl)CC12CCCC2` (centres undefined): the RP-LC retention time came out at 665 s.

`CCCCn1c(=O)c2ccccc2n(Cc2nc(-c3ccc(F)c(Br)c3)no2)c1=O` had an RP-LC retention time of 1320 s. Regarding `COCCCNC(=O)C1CCN(c2nc3ccc(-c4cccnc4)nc3s2)CC1`, the RP-LC retention time stood at 585 s.

Values taken from the METLIN SMRT retention time set (Domingo-Almenara et al. 2019).
